# Assay results as given in US20220133884A1, “COMPOUNDS USEFUL AS ADJUVANTS” (MILLENNIUM PHARMACEUTICALS, INC., priority 2019, published 2022).
# B1: OVA: chicken ovalbumin protein antigen, EndoFit Ovalbumin, InvivoGen (protein, UniProt P01012 2-386, looked up)
# Ovalbumin: GSIGAASMEFCFDVFKELKVHHANENIFYCPIAIMSALAMVYLGAKDSTRTQINKVVRFDKLPGFGDSIEAQCGTSVNVHSSLRDILNQITKPNDVYSFSLASRLYAEERYPILPEYLQCVKELYRGGLEPINFQTAADQARELINSWVESQTNGIIRNVLQPSSVDSQTAMVLVNAIVFKGLWEKAFKDEDTQAMPFRVTEQESKPVQMMYQIGLFRVASMASEKMKILELPFASGTMSMLVLLPDEVSGLEQLESIINFEKLTEWTSSNVMEERKIKVYLPRMKMEEKYNLTSVLMAMGITDVFSSSANLSGISSAESLKISQAVHAAHAEINEAGREVVGSAEAGVDAASVSEEFRADHPFLFCIKHIATNAVLFFGRCVSP
# Tests used:
# [1] = tested on: dendritic cells (CD11c+ cells); experiment: Study 1: activation of dendritic cells in lymph nodes after subcutaneous injection (flow cytometry); type: in vivo, Balb/c mice; details: ~18 hours post subcutaneous injection near brachial LNs, relative to vehicle treated mice
# Experimental: (§1) Unless otherwise stated, immune cell profiling was performed using flow cytometry on a BD (Beckton Dickinson) LSRII Fortessa.
# (§2) The goal of this study was to investigate the in vivo effects of Compound I-263a alone or in combination with a TLR9 agonist (CpG) with respect to the recruitment and activation of innate immune cells at regional draining lymph nodes (LNs). On day 0 in the evening, eight to ten week old female Balb/c mice (Jackson Labs, Bar Harbor, Me.) were injected subcutaneously bilaterally close to the two brachial LNs (50 μL each side) with one of the formulations shown in Table 1 (n=5 mice per group). On day 1 (˜18 hours post injection) the mice were euthanized. The inflamed brachial LNs as well as the distal non-inflamed inguinal LNs were harvested from each mouse individually. Single cell suspensions were generated by homogenizing the LNs on a 70μ cell strainer using 3 mL syringe plungers, followed by wash with FACS staining buffer (BD Biosciences, Cat #554657). The cell pellet was re-suspended in 100 μL of FACS buffer for staining on a 96-well U-bottom tissue culture plate (Corning). Each sample was stained using the flow cytometry panel (see Table 2 below) of antibodies followed by acquisition and analysis on BD LSRII Fortessa. For positive controls, 1 drop of ultracomp beads (Invitrogen, Cat #01-2222-42) were stained with 1 μL of the respective antibodies.
# B16F10-OVA tumors = experiment: Study 3: prophylactic vaccination and B16F10-OVA tumor challenge; type: in vivo, C57BL/6 mice; details: SC pre-treatment Day -14 to Day -4, tumor challenge Day 0; Ovalbumin 100 ug QWx2, Compound I-263a 15 mg/kg BIWx2, poly (I:C) 50 ug BIWx2; FIG. 5A/5B
# Experimental: The goal of this study was to evaluate the prophylactic effects of OVA+Compound 1-263a vaccination in mice challenged with tumors expressing the OVA antigen (B16F10-OVA). The B16F10-OVA cell line was generated in-house by stable integration of the chicken ovalbumin gene into the Rosa26 locus. Eight to ten-week-old female C57BL/6 mice (Jackson Labs, Bar Harbor, Me.) were injected with one of the formulations shown in Table 5 subcutaneously (SC) near the nape. All mice were subsequently challenged on Day 0 with 0.3e6 B16F10-OVA tumor cells/mouse subcutaneously (n=16 mice/group, except group 5 (ovalbumin+Compound 1-263a) for which n=15). Tumor growth was measured every 2-3 days using digital calipers and tumor volume was calculated as: L×W×(W/2).
# T cells and NK cells = experiment: Study 1: early lymphocyte activation marker CD69 on T cells and NK cells in lymph nodes (flow cytometry); type: in vivo, Balb/c mice; details: ~18 hours post subcutaneous injection, Compound I-263a 7.5 mg/kg, CpG 2.5 mg/kg
# Experimental: as §1, §2
Molecule,"expression of marker CD86 on CD11c+ cells in the distal inguinal LNs ([1]; 7.5 mg/kg, FIG. 1b)","expression of marker CD40 on CD11c+ cells in the brachial LNs ([1]; Compound I-263a 7.5 mg/kg, CpG 2.5 mg/kg, FIG. 1a)","expression of marker CD86 on CD11c+ cells in the brachial LNs ([1]; Compound I-263a 7.5 mg/kg, CpG 2.5 mg/kg, FIG. 1b)",growth of B16-F10 tumors expressing OVA (tumor protection) (B16F10-OVA tumors),early lymphocyte activation marker CD69 on T cells in the brachial LNs (T cells and NK cells; FIG. 2a),early lymphocyte activation marker CD69 on NK cells in the brachial LNs (T cells and NK cells; FIG. 2b)
"Cc1sc(C(=O)c2cncnc2N[C@@H]2C[C@H](COS(N)(=O)=O)[C@@H](O)C2)cc1[C@@H]1NCCc2ccc(Cl)cc21 [Compound I-263a, [(1R,2S,4R)-4-{[5-({4-[(1R)-7-chloro-1,2,3,4-tetrahydroisoquinolin-1-yl]-5-methyl-2-thienyl}carbonyl)pyrimidin-4-yl]amino}-2-hydroxycyclopentyl]methyl sulfamate]",but not in the distal inguinal LNs,increases,increases,did not confer tumor protection,changes in the early lymphocyte activation marker CD69 were observed,changes in the early lymphocyte activation marker CD69 were observed
B1,,,,did not confer tumor protection,,
